Where two headings read alike, the source gives them in different places.
What was measured:
[1] = molecular target: T1, 5HT2C receptor (Rattus norvegicus, UniProt P08909); details: microdialysis, maximal effect; cited from earlier work
T1 construct: from tissue; host or cells: brain in vivo (microdialysis), value quoted from the literature
T1 sequence (P08909 33-460): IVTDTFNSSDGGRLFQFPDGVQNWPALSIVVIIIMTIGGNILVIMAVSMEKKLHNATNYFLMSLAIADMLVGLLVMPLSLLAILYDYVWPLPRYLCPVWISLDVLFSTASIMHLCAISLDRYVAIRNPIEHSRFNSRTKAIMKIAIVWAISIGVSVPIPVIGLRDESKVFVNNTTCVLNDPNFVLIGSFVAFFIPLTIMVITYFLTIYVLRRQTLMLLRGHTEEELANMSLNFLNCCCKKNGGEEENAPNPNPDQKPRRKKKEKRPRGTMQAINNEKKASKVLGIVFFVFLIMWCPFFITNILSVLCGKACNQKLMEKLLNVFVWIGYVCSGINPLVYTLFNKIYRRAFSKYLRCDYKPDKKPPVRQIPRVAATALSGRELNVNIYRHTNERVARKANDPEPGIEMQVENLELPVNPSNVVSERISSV

[2] = molecular target: T2, D2-R (Homo sapiens, UniProt P14416); details: cited from earlier work
[3] = molecular target: T3, NET (Rattus norvegicus, UniProt Q63380); details: blocking the NET; cited from earlier work
T3 construct: from tissue

[4] = tested on: α2 adrenergic receptors; details: full stimulation of α2 receptors; cited from earlier work
[5] = tested on: fast Na+ channel, persistent Na+ channel, L-type Ca++ channel; details: saturating dose of 5HT (1 μM); cited from earlier work
[6] = molecular target: receptors of the 5HT1 class; details: read-out: high-affinity binding for serotonin; cited from earlier work
[7] = molecular target: 5HT-Transporter (Homo sapiens, UniProt P31645); details: read-out: Km of 5HT-Transporter; cited from earlier work
[8] = molecular target: alpha 1-adrenoreceptor; details: nonspiking regions, human cortical membranes; read-out: affinity; cited from earlier work
[9] = tested on: 5HT1b/d autoreceptor; details: cited from earlier work; for decrease of free 5HT: maximal stimulation of 5HT1b/d autoreceptor
[10] = tested on: Norepinephrine Transporter (NET); details: rat jejunum, cited from earlier work
[11] = molecular target: α2-R; details: read-out: Ki for NE at the α2-R; cited from earlier work
[12] = molecular target: alpha 1-adrenoreceptor; details: normal rat brain in vivo, cited from earlier work
[13] = molecular target: T2, D2-R; test: Drug and tracer binding affinity and on/off rates at the D2-R (Table 1); details: calculated as kon × Kd

T2 sequence (P14416 whole entry): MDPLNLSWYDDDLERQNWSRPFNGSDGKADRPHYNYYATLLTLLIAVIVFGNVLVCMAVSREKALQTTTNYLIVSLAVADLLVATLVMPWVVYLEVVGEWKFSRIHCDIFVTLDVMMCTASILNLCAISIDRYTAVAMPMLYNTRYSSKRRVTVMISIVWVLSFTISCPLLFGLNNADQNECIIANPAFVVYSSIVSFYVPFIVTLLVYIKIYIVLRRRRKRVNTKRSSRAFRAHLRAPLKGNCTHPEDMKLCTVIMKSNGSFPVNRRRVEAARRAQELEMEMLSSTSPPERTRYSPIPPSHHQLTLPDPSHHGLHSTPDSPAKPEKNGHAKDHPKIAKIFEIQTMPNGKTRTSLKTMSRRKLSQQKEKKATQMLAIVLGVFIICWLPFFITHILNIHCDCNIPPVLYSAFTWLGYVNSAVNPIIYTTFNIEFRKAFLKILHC
T3 sequence (Q63380 1-617): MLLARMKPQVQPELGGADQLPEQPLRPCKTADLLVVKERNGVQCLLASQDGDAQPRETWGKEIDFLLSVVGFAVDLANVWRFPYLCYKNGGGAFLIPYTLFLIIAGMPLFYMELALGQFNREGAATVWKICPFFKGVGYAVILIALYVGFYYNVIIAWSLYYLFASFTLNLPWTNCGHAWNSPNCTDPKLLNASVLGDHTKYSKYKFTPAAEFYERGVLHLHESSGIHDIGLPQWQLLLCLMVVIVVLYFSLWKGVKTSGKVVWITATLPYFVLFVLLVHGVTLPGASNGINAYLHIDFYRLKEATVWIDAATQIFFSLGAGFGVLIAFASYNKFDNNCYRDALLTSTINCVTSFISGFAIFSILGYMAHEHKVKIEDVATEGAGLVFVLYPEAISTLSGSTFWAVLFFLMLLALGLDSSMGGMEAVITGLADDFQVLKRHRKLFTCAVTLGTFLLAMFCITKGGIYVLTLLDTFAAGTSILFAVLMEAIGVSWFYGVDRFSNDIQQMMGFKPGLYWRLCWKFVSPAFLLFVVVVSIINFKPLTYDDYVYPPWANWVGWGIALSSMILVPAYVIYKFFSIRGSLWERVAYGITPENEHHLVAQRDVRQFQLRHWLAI
5HT-Transporter, sequence (P31645 whole entry): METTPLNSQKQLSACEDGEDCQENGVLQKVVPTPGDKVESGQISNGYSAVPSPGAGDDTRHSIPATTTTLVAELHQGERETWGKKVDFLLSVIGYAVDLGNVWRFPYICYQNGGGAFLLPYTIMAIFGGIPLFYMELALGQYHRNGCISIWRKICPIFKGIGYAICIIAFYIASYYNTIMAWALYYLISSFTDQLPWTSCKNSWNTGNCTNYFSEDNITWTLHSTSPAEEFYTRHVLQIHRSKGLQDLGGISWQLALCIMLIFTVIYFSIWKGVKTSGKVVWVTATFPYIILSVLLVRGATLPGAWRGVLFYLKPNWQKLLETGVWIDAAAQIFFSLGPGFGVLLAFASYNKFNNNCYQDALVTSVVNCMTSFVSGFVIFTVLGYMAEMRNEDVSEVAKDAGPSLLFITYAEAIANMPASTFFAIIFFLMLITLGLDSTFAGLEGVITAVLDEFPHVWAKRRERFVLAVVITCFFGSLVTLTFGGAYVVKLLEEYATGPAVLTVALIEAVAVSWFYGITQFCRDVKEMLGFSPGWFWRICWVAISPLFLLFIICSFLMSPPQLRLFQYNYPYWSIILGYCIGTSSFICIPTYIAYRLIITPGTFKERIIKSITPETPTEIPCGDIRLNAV

Compound: C[C@H](N)Cn1ccc2cc(F)c(Cl)cc21 [Ro-60-0175]
- maximal reduction of free DA [1]: 30%

Compound: Cc1nc2n(c(=O)c1CCN1CCC(c3noc4cc(F)ccc34)CC1)CCCC2O (stereo not drawn) [Paliperidone]
- Kd ([2]; at the D2-R, read-out: Kd): 4.1 nM

Compound: COc1ccc(C(CN(C)C)C2(O)CCCCC2)cc1 (stereo not drawn) [venlafaxine]
- NE increase in cortex [3]: 498%

Compound: Clc1cccc(Cl)c1N=C1NCCN1 [clonidine]
- reduction of 5HT firing (and subsequent PFC 5HT release) [4]: 45%

Compound: NCCc1c[nH]c2ccc(O)cc12 [5HT, serotonin]
- decrease of maximum conductance of fast Na+, persistent Na+ and L-type Ca++ channel [5]: 20%
- Kd [6]: ~15 nM
- Km [7]: 0.34 µM

Compound: COc1cc2nc(N3CCN(C(=O)c4ccco4)CC3)nc(N)c2cc1OC [[^3H]prazosin, prazosin]
- Kd [8]: 0.17 nM

Compound: O=c1ccc2[nH]cc(C3=CCNCC3)c2[nH]1 [CP93,129]
- decrease of free 5HT [9]: 45%

Compound: NC[C@H](O)c1ccc(O)c(O)c1 [norepinephrine]
- Km ([10]; read-out: Km, low-affinity component (uptake 2)): 111 µM
- Km ([10]; read-out: Michaelis constant (Km), high-affinity component (uptake 1)): 1.72 µM
- Ki [11]: 996 nM

Compound: CC(C)NCC(O)COc1ccccc1-n1cccc1 (stereo not drawn) [isamoltane]
- increase of free 5HT ([9]; maximal block of 5HT1b/d autoreceptor): 50%

Compound: O=C1c2ccccc2CCC1CNCCc1ccc(O)c(I)c1 (stereo not drawn) [[^125I]HEAT, [^125I]iodo-2-[beta-(4-hydroxyphenyl)ethylaminomethyl]]
- Kd ([12]; read-out: Kd (half-saturation constant), high-affinity site): 3.6 nM
- Kd ([12]; read-out: Kd, low-affinity site): 668 nM

Compound: CN1CCC[C@@H]1Cc1c[nH]c2ccc(Nc3ncccc3[N+](=O)[O-])cc12 [CP135,807]
- decrease of free 5HT [9]: 45%

Compound: CCN1CCC[C@H]1CNC(=O)c1c(OC)ccc(I)c1O [IBZM]
- Koff [13]: 0.0176 s⁻¹
- Kd ([2]; tracer, read-out: affinity of tracer for the D2-R): 160 nM

From patent US20170372030A9, “METHOD AND APPARATUS FOR COMPUTER MODELING OF THE INTERACTION BETWEEN AND AMONG CORTICAL AND SUBCORTICAL AREAS IN THE HUMAN BRAIN FOR THE PURPOSE OF PREDICTING THE EFFECT OF DRUGS IN PSYCHIATRIC AND COGNITIVE DISEASES” (priority 2005, published 2017)
